According to patent publication US12390467B2, “Necroptosis inducers or autophagy inhibitors or a combination thereof” (The University of Toledo, priority 2018, dated 2025):

Key:
Format in all cases: cell-based
[1] = test system: MDA-MB468 cells; experiment: Nuclear condensation and morphology, MDA-MB468
Method: To detect DNA fragmentation following apoptotic cell death, the Hoechst 33258 assay was performed. Briefly, TNBC cells were seeded in a 6-well plate at a density of 10,000 cells/well over 18-mm cover slips and incubated for 24 h. Following incubation, TPH104 (1, 2, or 5 μM), or vehicle were added for an additional 12 h. Subsequently, Hoechst 33258 (Sigma Aldrich, USA) was added to the cells at a concentration of 0.5 mg/mL and incubated for 30 minutes at 37° C. The cells were then washed 3× with phosphate buffered saline (PBS). Subsequently, the cover slips were mounted on a microscope glass/slide and allowed to dry for at least 2 h. Stained cells from each cover slip were captured from randomly selected fields under a fluorescent microscope (EVOS-FLC cell imaging system, Thermofisher scientific) to qualitatively determine the proportion of viable and apoptotic cells based on their relative fluorescence and nuclear fragmentation as previously described.

[2] = test system: RIP, p-RIP, MLKL, caspase 8 in MDA-MB468 cells; experiment: Western blot, necroptotic proteins, MDA-MB468
Method: The TNBC cells were seeded in a culture flask and incubated for 24 h. The cells were then incubated with different concentrations of the lead compounds and re-incubated for an additional 12 or 24 h. […] The bicinchoninic acid (BCA) was used to determine protein concentration in the cell extracts (G-BIOSCIENCES, St. Louis, MO, USA). […] The membrane was blocked using 5% milk in Tris-buffered Tween 20 saline for 30 minutes. The membrane was then incubated overnight with primary antibodies against Bak, Bax, Bcl-2, caspase9, caspase 3, caspase 7, PARP, cytochrome c, N-cadherin, E-cadherin, c-Myc, dishevelled segment polarity protein 3 (DVL3), dishevelled segment polarity protein 2 (DVL2), Vimentin, mitogen-activated protein kinase kinase (MAPKK also known as MEK1/2), β-catenin, low-density lipoprotein receptor-related protein 6 (LRP6), receptor-interacting protein kinase (RIP), phosphorylated RIP (p-RIP), mixed lineage kinase domain like pseudokinase(MLKL), Caspase 8, light chain 3 (LC3), lysosomal-associated membrane protein 1 (LAMP1), unc-51 like autophagy activating kinase 1 (ULK1), ras associated protein 7 (Rab7), ras associated protein 5 (Rab5), Beclin 1, mechanistic target of rapamycin (mTOR), tumor necrosis factor alpha (TNF-α), tumor necrosis factor receptor 1 (TNFR1), tumor necrosis factor receptor 2 (TNFR2), Fas-associated protein with death domain (FADD), Fas ligand (Fas), TNF-related apoptosis-inducing ligand (TRAIL), death receptor 5 (DR5), Tumor necrosis factor receptor type 1-associated DEATH domain (TRADD), receptor-interacting protein kinase 3 (RIP3), β-actin or GAPDH in 1:1000 dilution in 5% milk or 5% BSA at 4° C. Horseradish peroxidase-labeled (HRP) anti-rabbit or anti-mouse secondary antibodies (1:5,000 dilution) were added and incubated the next day for an additional 1 h. A ChemiDoc™ MP System imaging system from Bio-Rad (Hercules, CA, USA) was used for blots reading. Blots were used to obtain the protein bands, followed by quantification of the bands using image J software (NIH, Bethesda, MD, USA). All of the data were expressed as the ratio of β-actin or GAPDH.

[3] = test system: BT-20 cells; experiment: incuCyte live cell imaging of proliferation; details: 0.1, 1, 3, and 10 μM
Text: FIG. 4: Representative images of the anti-proliferative effect of TPH104 at different concentrations and different time points in BT-20 cells. The time lapse images were taken using an incuCyte live cell imaging instrument (10×). **p<0.01, ***p<0.001, ****p<0.0001 compared to the control.

COc1ccc(O)c(/C=N/Nc2ncnc3scc(-c4ccc(C)cc4)c23)c1 [TPH104]
nuclear condensation or cellular shrinkage [1]: did not produce
expression of caspase 8 ([2]; 0.5, 1, 2, and 5 μM): significantly decreased
expression levels of MLKL ([2]; 1, 2, and 5 μM): significantly increased
expression of p-RIP ([2]; 1, 2, and 5 μM): significantly increased
expression of RIP1 ([2]; 1, 2, or 5 μM for 12 h): significantly increased
BT-20 cell proliferation [3]: concentration-dependent and time-dependent decrease
